Data as given in article PMC6274539, “Photoactivatable Caged Prodrugs of VEGFR-2 Kinase Inhibitors” (Molecules, 2016).
Entries after “also recorded” stand apart in the source; their conditions may differ. Where two headings read alike, the source gives them in different places.

Tests used:
[1] = system: PC-3 cells; test: cellular growth (proliferation) assay, resazurin; assay type: cell-based; conditions: for antiproliferative effect after UV irradiation: 365 nm, 1.1 kW/m^2, 48 h; for TGI (total growth inhibition) mark: without UV irradiation
Protocol: Growth assays on VEGFR-2 dependent PC-3 cells were performed.
PC-3 cells were purchased from CLS Cell Lines Service GmbH (Eppelheim, Germany). The cells were grown in DMEM:Hams F12 (1:1) medium with 5% FCS. PC-3 cells were incubated in a 5% CO2 humidified atmosphere at 37 °C.
The cells were grown in cell flasks until approximately 90% confluence and then seeded to give 13000 cells in 100 μL per well into 96-well CulturePlates™ (Perkin Elmer). In addition to the test plates, one plate was prepared for reference measurement at day zero. All plates were incubated for 24 h at 37 °C in a humidified atmosphere with 5% CO2. Compounds 1, 3, 4, and 5 were dissolved in 100% DMSO (v/v) and added to the test plates. The final DMSO concentration in the assay was 0.5% (v/v). Viability of the cells in the day zero control plates were determined on the same day without adding any compounds. For viability measurement the resazurin assay was used. The shift in the fluorescence signal was measured at the LS55 Fluorescence spectrometer (Perkin Elmer). For the photoactivation experiments the test plates were irradiated at 365 nm for 5 min (LED source: 8× Nichia NCSU033B, Sahlmann Photochemical Solutions, 50%, 1.1 kW/m^2). Test plates were incubated for further 48 h and cell viability was defined as described above. Measured raw data was converted into percent of cell growth by using the high control (0.5% DMSO (v/v) without compound) and the day zero control. For dose-response studies, 11 different concentrations of compounds were tested in duplicates. IC50 values were calculated using the 4-parameter logarithmic fit option of GraphPad Prism 5.

[2] = target: T1, VEGFR-2 (Homo sapiens, UniProt P35968); test: radiometric 33PanQinase VEGFR-2 kinase assay (ProQinase); assay type: biochemical; conditions: 10 semi-log concentrations, single samples, 1% DMSO
T1 construct: determined using VEGFR-2 protein kinase by a radiometric ^33PanQinase® assay; purchased ProQinase (Freiburg, Germany)
Protocol: As predicted by molecular modeling, insertion of the protecting group DMNB should diminish the inhibitory activity both of the maleimide 1 and the carbazole 3. […] The IC50 values towards VEGFR-2 were determined (Table 1).
The VEGFR-2 IC50 profile for 1, 3, 4 and 5 was determined using VEGFR-2 protein kinase by a radiometric ^33PanQinase® assay. […] Prior to testing, the compounds were dissolved to prepare 1 × 10^−2 M stock solutions in 100% DMSO. The final DMSO concentration in the reaction cocktails was 1% in all cases. Analyses were performed by ProQinase (Freiburg, Germany).

[3] = photoactivation (uncaging) at 365 nm in DMSO (HPLC, LC-MS); assay type: physicochemical; conditions: 1 mM in DMSO, 5.4 W, up to 10 min
From the text: A further prerequisite for an application of caged prodrugs is a rapid and quantitative release of active parent compounds by irradiation. To examine this, we investigated the uncaging of 4 and 5 induced by irradiation at 365 nm with 5.4 W (Figure 5). […] Initially released maleimide 1 is converted to the intermediate 2 by proceeding irradiation, which is in line to the previously described instability of 1, (compare Figure 4a). […] Due to UV stability of 3 no other by-products could be detected.
After 0.25, 0.5, 0.75, 1, 2, 3, 5 and 10 min of irradiation samples were taken. Aliquots were diluted 1:5 with methanol and subsequently analyzed by HPLC. Additional to retention time LC-MS was used to proof identity.

[4] = system: PC-3 cells; test: cellular uptake by fluorescence microscopy (cell staining); assay type: cell-based; conditions: live PC-3 cells, 10 µM, 30 min, autofluorescence
Protocol: Next, we investigated the cellular bioavailability of the caged prodrugs. For this purpose, we used the autofluorescence of the carbazole 3 and its caged derivative 5. The emission spectra of both compounds are shown in the Supplementary Figure S6. The fluorescence microscopy was used to explore the uptake of the compounds into the cells. Live PC-3 cells were stained with 10 µM solutions of 3 or 5, and then fixed with formalin. Subsequently, the cell nuclei were counterstained with 1 µg/mL DAPI.
PC-3 cells were stained with the carbazole 3 and its caged derivative 5. For this purpose, the cells were seeded to give 15,000 cells in 50 µL per well into 96-well half area microplate (Ref.: 675986, Greiner bio-one, Kremsmünster, Austria). The plate was incubated for 48 h at 37 °C in a humidified atmosphere with 5% CO2. Compounds 3 and 5 were dissolved in DMEM:Hams F12 (1:1) medium with 5% FCS and added to the cells to give the endconcentration of 10 µM, respectively. The cells were incubated with the compounds for 30 min at 37 °C. After that, the cells were washed twice with PBS and fixed with 3.3% formalin for 15 min. […] After 30 min incubation at 37 °C, the cells were washed with PBS and the fluorescence images were taken at the ImageXpress® Micro XL (Molecular Devices, Sunnyvale CA, USA). […]

[5] = Homo sapiens, PC-3, light or radiation study, irradiated at 365 nm, 5 min, 1.1 kW/m^2, cell growth after 48 h, read-out: GI50 after Irradiation
[6] = irradiated at 365 nm, 5 min, 1.1 kW/m^2, cell growth after 48 h, read-out: GI50 after Irradiation

T1 sequence (P35968 20-1356): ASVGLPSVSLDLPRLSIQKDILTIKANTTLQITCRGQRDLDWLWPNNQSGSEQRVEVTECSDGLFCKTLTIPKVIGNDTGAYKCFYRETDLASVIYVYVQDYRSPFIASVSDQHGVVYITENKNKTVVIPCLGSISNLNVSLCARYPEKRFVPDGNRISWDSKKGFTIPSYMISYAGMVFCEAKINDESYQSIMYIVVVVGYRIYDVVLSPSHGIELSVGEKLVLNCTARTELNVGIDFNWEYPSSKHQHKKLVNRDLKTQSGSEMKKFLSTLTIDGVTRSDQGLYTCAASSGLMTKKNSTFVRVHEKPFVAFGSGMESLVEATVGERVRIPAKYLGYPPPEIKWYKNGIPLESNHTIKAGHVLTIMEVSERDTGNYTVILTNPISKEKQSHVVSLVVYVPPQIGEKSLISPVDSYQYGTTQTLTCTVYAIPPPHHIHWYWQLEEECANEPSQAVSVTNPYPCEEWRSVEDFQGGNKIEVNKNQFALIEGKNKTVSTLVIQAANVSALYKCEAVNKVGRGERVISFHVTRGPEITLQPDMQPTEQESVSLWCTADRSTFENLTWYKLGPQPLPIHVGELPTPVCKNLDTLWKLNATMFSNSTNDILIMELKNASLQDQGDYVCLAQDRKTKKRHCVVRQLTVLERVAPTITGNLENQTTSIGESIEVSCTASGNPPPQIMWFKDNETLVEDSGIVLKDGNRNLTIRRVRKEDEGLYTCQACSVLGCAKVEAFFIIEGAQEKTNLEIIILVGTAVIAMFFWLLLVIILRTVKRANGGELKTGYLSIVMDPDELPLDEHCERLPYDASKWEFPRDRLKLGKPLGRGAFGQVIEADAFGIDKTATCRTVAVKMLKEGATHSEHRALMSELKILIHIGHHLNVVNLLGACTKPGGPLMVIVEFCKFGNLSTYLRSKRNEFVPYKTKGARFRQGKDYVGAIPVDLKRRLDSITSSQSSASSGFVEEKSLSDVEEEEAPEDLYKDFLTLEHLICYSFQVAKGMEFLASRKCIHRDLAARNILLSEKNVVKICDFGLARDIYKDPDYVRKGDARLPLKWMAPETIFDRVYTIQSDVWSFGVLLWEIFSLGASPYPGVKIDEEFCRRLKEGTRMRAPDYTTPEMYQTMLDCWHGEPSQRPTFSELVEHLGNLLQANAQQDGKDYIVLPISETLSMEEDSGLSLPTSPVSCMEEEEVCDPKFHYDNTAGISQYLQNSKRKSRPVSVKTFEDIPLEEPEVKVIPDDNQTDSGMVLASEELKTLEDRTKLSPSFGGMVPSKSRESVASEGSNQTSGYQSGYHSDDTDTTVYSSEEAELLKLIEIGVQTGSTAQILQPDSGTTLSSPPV

## C[C@H](NC(=O)OC(C)(C)C)C(=O)O [Boc-Ala, reference compound]
[1]; 5 min
  antiproliferative effect after UV irradiation: does not have any effect on cellular growth
[1]; no UV irradiation, 48 h
  antiproliferative effect without UV irradiation: do not show any; also recorded: did not show any antiproliferative effects

## COc1cc(CN2C(=O)C(c3cc(OC)c(OC)c(OC)c3)=C(c3c[nH]c4ccccc34)C2=O)c([N+](=O)[O-])cc1OC [Compound 4, 1-(4,5-Dimethoxy-2-nitrobenzyl)-3-(1H-indol-3-yl)-4-(3,4,5-trimethoxyphenyl)-1H-pyrrole-2,5-dione]
[2]
  IC50: 4.59 µM
other
  melting point: 205 °C
[3]
  photoinduced release of parent compound (uncaging): cleavage of the DMNB PPG
[1]; [5]
  GI50: 0.1 µM
[1]; after irradiation, PPG from DMNB-Boc-Ala
  concentration at which the cleaved PPG shows toxicity relative to efficacious concentration of the irradiated compound: approximately 500 fold
[1]; no UV irradiation, 48 h
  antiproliferative effect without UV irradiation: do not show any; also recorded: very marginal antiproliferative activity
[1]; no UV irradiation, cell growth after 48 h
  GI50 without Irradiation: not reached
[1]; 48 h
  TGI (total growth inhibition) mark: not reached even at high concentrations

## COc1cc(CN2C(=O)c3c(c4c5ccccc5[nH]c4c4c(OC)c(OC)c(OC)cc34)C2=O)c([N+](=O)[O-])cc1OC [Compound 5, 2-(4,5-Dimethoxy-2-nitrobenzyl)-5,6,7-trimethoxybenzo[a]pyrrolo[3,4-c]carbazole-1,3(2H,8H)-dione]
[2]
  IC50: 44.8 µM
other
  melting point: 283 °C
[4]
  cellular uptake: taken up into the cells, but not within the cell nuclei
[3]
  photoinduced release of parent compound (uncaging): rapidly released
[1]; Homo sapiens, PC-3, light or radiation study, 48 h, no UV irradiation, cell growth after 48 h, read-out: GI50 without Irradiation
  GI50: 34.6 µM
[1]; [5]
  GI50: 0.22 µM
[1]; [6]
  GI50: 0.2 µM
[1]; 48 h
  TGI (total growth inhibition) mark: not reached even at high concentrations

## COc1cc(COC(=O)[C@H](C)NC(=O)OC(C)(C)C)c([N+](=O)[O-])cc1OC [DMNB-Boc-Ala, reference compound]
[1]; 5 min
  antiproliferative effect after UV irradiation: distinct antiproliferative activity
[1]; [6]
  GI50: 50.3 µM
[1]; no UV irradiation, 48 h
  antiproliferative effect without UV irradiation: do not show any; also recorded: did not show any antiproliferative effects
